The results in this text go back to patent publication US20120135995A1, “FUNGICIDAL DIPHENYL-SUBSTITUTED PYRIDAZINES” (E.I. Dupont de Nemours and Company, priority 2009, published 2012).

Broadly, the pest or weed control is the degree to which the test organism was suppressed or injured, in per cent.

Common to all, as to format: in vivo
The subject of one assay is Alternaria solani. As to the kind of experiment: Test B: tomato seedlings sprayed, next day inoculated with Alternaria solani (tomato early blight), visual disease rating. To be noted: sprayed day before inoculation. The source says:
(§1) General protocol for preparing test suspensions for Tests A-F: the test compounds were first dissolved in acetone in an amount equal to 3% of the final volume and then suspended at the desired concentration (in ppm) in acetone and purified water (50/50 mix) containing 250 ppm of the surfactant Trem® 014 (polyhydric alcohol esters). The resulting test suspensions were then used in Tests A-F. Spraying a 200 ppm test suspension to the point of run-off on the test plants was the equivalent of a rate of 500 g/ha. An asterisk “*” next to the rating value indicates a 40 ppm test suspension.
The test suspension was sprayed to the point of run-off on tomato seedlings. The following day the seedlings were inoculated with a spore suspension of Alternaria solani (the causal agent of tomato early blight) and incubated in a saturated atmosphere at 27° C. for 48 h, and then moved to a growth chamber at 20° C. for 5 days, after which time visual disease ratings were made.
(§2) Results for Tests A-F are given in Table A. In the Table, a rating of 100 indicates 100% disease control and a rating of 0 indicates no disease control (relative to the controls). A dash (-) indicates no test results. All results are for 200 ppm except where followed by “*”, which indicates 40 ppm.

In another assay the test system is Septoria nodorum. As to the kind of experiment: Test C: wheat seedlings sprayed, next day inoculated with Septoria nodorum (wheat glume blotch), visual disease rating. To be noted: sprayed day before inoculation.
Source text: as §1
The test suspension was sprayed to the point of run-off on wheat seedlings. The following day the seedlings were inoculated with a spore suspension of Septoria nodorum (the causal agent of wheat glume blotch) and incubated in a saturated atmosphere at 24° C. for 48 h, and then moved to a growth chamber at 20° C. for 6 days, after which time visual disease ratings were made.
as §2

The test system of assay [1] is Puccinia recondita f. sp. tritici. Nature of the assay: Test E1: wheat seedlings inoculated with Puccinia recondita f. sp. tritici (wheat leaf rust), sprayed afterwards, visual disease rating. To be noted: sprayed after inoculation.
Source text: as §1
Wheat seedlings were inoculated with a spore suspension of Puccinia recondita f. sp. tritici (the causal agent of wheat leaf rust) and incubated in a saturated atmosphere at 20° C. for 24 h, and then moved to a growth chamber at 20° C. for 2 days. At the end of this time the test suspension was sprayed to the point of run-off on the wheat seedlings, and then the seedlings were moved to a growth chamber at 20° C. for 6 days, after which time visual disease ratings were made.
as §2

The subject of the next assay is Erysiphe graminis. As to the kind of experiment: Test F: wheat seedlings sprayed, next day inoculated with Erysiphe graminis (wheat powdery mildew), visual disease rating. The conditions noted are these: sprayed day before inoculation.
Source text: as §1
The test suspension was sprayed to the point of run-off on wheat seedlings. The following day the seedlings were inoculated with a spore dust of Erysiphe graminis, (the causal agent of wheat powdery mildew) and incubated in a growth chamber at 20° C. for 8 days, after which time visual disease ratings were made.
as §2

Assay [2] has as its system Puccinia recondita f. sp. tritici. As to the kind of experiment: Test E2: wheat seedlings sprayed, next day inoculated with Puccinia recondita f. sp. tritici (wheat leaf rust), visual disease rating. To be noted: sprayed day before inoculation.
Source text: as §1
The test suspension was sprayed to the point of run-off on wheat seedlings. The following day the seedlings were inoculated with a spore suspension of Puccinia recondita f. sp. tritici (the causal agent of wheat leaf rust) and incubated in a saturated atmosphere at 20° C. for 24 h, and then moved to a growth chamber at 20° C. for 7 days, after which time visual disease ratings were made.
as §2

A further assay relates to Botrytis cinerea. As to the kind of experiment: Test A: tomato seedlings sprayed, next day inoculated with Botrytis cinerea (tomato Botrytis), visual disease rating. To be noted: sprayed day before inoculation.
Source text: as §1
The test suspension was sprayed to the point of run-off on tomato seedlings. The following day the seedlings were inoculated with a spore suspension of Botrytis cinerea (the causal agent of tomato Botrytis) and incubated in saturated atmosphere at 20° C. for 48 h, and then moved to a growth chamber at 24° C. for 3 days, after which time visual disease ratings were made.
as §2

The next assay deals with Septoria tritici. Nature of the assay: Test D: wheat seedlings sprayed, next day inoculated with Septoria tritici (wheat leaf blotch), visual disease rating. To be noted: sprayed day before inoculation.
Source text: as §1
The test suspension was sprayed to the point of run-off on wheat seedlings. The following day the seedlings were inoculated with a spore suspension of Septoria tritici (the causal agent of wheat leaf blotch) and incubated in saturated atmosphere at 24° C. for 48 h, and then moved to a growth chamber at 20° C. for 19 days, after which time visual disease ratings were made.
as §2

[3] abbreviates: Puccinia recondita, 200 ppm test suspension.
[4] abbreviates: Puccinia recondita, 40 ppm test suspension (*).

Marks after values point to notes of the source that are not given here.

For the compound `COc1cc(OC)cc(-c2cnnc(Cl)c2-c2c(F)cc(F)cc2F)c1` [Compound 5, 3-chloro-5-(3,5-dimethoxyphenyl)-4-(2,4,6-trifluorophenyl)pyridazine], the pest or weed control at 200 ppm with Alternaria solani (Alternaria solani, 200 ppm test suspension) is 100%; in the assay on Septoria nodorum (Parastagonospora nodorum, 200 ppm test suspension), 100%; in assay [1] (setting [3]), 99%; in the assay on Erysiphe graminis (Blumeria graminis, 200 ppm test suspension), 100%; in assay [2] (setting [3]), 100%; in the assay with Botrytis cinerea (Botrytis cinerea, 200 ppm test suspension), 99%. Moreover, the pest or weed control at 200 ppm in the assay with Septoria tritici (Zymoseptoria tritici, 200 ppm test suspension) is 98%.
On to `COc1ccc(-c2c(C)nnc(C(C)=O)c2-c2cc(OC)cc(OC)c2)cc1` [Compound 14], for which the “Test B rating (disease control)” value in the assay with Alternaria solani (200 ppm test suspension) amounted to 0%. In addition, in the assay on Septoria nodorum (200 ppm test suspension), the “Test C rating (disease control)” value is reported as 0%. Moreover, the “Test E1 rating (disease control)” value in assay [1] (200 ppm test suspension) turned out to be 16%. In addition, in the assay with Erysiphe graminis (200 ppm test suspension), the “Test F rating (disease control)” value is given as 84%. The “Test E2 rating (disease control)” value in assay [2] (200 ppm test suspension) was found to be 95%. The “Test A rating (disease control)” value in the assay with Botrytis cinerea (200 ppm test suspension) was 99%. In addition, in the assay with Septoria tritici (200 ppm test suspension), the “Test D rating (disease control)” value was found to be 99%.
With `COc1cc(OC)cc(-c2c(C(C)C)nnc(Cl)c2-c2c(F)cc(F)cc2F)c1` [Compound 16], the “Test B rating (disease control)” value with Alternaria solani (200 ppm test suspension) worked out at 99%. In addition, the “Test C rating (disease control)” value in the assay with Septoria nodorum (200 ppm test suspension) is 92%. Further, in assay [1] (200 ppm test suspension), the “Test E1 rating (disease control)” value is given as 100%. Besides, the “Test F rating (disease control)” value in the assay with Erysiphe graminis (200 ppm test suspension) is 100%. In addition, the “Test E2 rating (disease control)” value in assay [2] (200 ppm test suspension) is reported as 100%. In the assay with Botrytis cinerea (200 ppm test suspension), the “Test A rating (disease control)” value was 99%. The “Test D rating (disease control)” value in the assay with Septoria tritici (200 ppm test suspension) is 99%.
Take `COc1cc(OC)cc(-c2c(C(C)C)nnc(C)c2-c2c(F)cc(F)cc2F)c1` [Compound 18]: the “Test B rating (disease control)” value in the assay on Alternaria solani (200 ppm test suspension) worked out at 99%. The “Test C rating (disease control)” value in the assay on Septoria nodorum (200 ppm test suspension) is 82%. Further, in assay [1] (200 ppm test suspension), the “Test E1 rating (disease control)” value is 100%. In addition, the “Test F rating (disease control)” value in the assay with Erysiphe graminis (200 ppm test suspension) stood at 100%. The “Test E2 rating (disease control)” value in assay [2] (200 ppm test suspension) is reported as 100%. In addition, the “Test A rating (disease control)” value in the assay on Botrytis cinerea (200 ppm test suspension) came out at 100%. In addition, in the assay on Septoria tritici (200 ppm test suspension), the “Test D rating (disease control)” value came out at 99%.
As to `COc1ccc(-c2c(C)nnc(C(C)(C)O)c2-c2cc(OC)cc(OC)c2)cc1` [Compound 19], the “Test B rating (disease control)” value in the assay on Alternaria solani (40 ppm test suspension (*)) is 99* %. The “Test C rating (disease control)” value in the assay on Septoria nodorum (40 ppm test suspension (*)) is listed as 0* %. For the same compound, in assay [1] (40 ppm test suspension (*)), the “Test E1 rating (disease control)” value is on record as 0* %. In addition, the “Test F rating (disease control)” value in the assay on Erysiphe graminis (40 ppm test suspension (*)) was 27* %. Besides, the “Test E2 rating (disease control)” value in assay [2] (40 ppm test suspension (*)) was 96* %. In addition, the “Test A rating (disease control)” value in the assay with Botrytis cinerea (40 ppm test suspension (*)) was 84* %. Moreover, the “Test D rating (disease control)” value in the assay with Septoria tritici (40 ppm test suspension (*)) is listed as 97* %.
In the case of `COc1cc(OC)cc(-c2c(C(C)=O)nnc(C)c2-c2c(F)cc(F)cc2F)c1` [Compound 20, 1-[4-(3,5-dimethoxyphenyl)-6-methyl-5-(2,4,6-trifluorophenyl)-3-pyridazinyl]ethanone], the pest or weed control at 40 ppm was found to be 26% in the assay with Alternaria solani (Alternaria solani, 40 ppm test suspension (*)); 0% in the assay with Septoria nodorum (Parastagonospora nodorum, 40 ppm test suspension (*)); 41% in assay [1] (setting [4]); 98% in the assay with Erysiphe graminis (Blumeria graminis, 40 ppm test suspension (*)); 99% in assay [2] (setting [4]); 99% in the assay on Botrytis cinerea (Botrytis cinerea, 40 ppm test suspension (*)). For the same compound, the pest or weed control at 40 ppm in the assay on Septoria tritici (Zymoseptoria tritici, 40 ppm test suspension (*)) came out at 96%.
In the case of `COc1cc(OC)cc(-c2c(C)nnc(C)c2-c2ccc(F)cc2Cl)c1` [Compound 52], the “Test B rating (disease control)” value in the assay on Alternaria solani (200 ppm test suspension) is 94%. In the assay with Septoria nodorum (200 ppm test suspension), the “Test C rating (disease control)” value amounted to 87%. Further, in assay [1] (200 ppm test suspension), the “Test E1 rating (disease control)” value turned out to be 9%. Moreover, the “Test F rating (disease control)” value in the assay with Erysiphe graminis (200 ppm test suspension) was determined as 99%. Further, the “Test E2 rating (disease control)” value in assay [2] (200 ppm test suspension) turned out to be 100%. Further, in the assay on Botrytis cinerea (200 ppm test suspension), the “Test A rating (disease control)” value came out at 99%.
With `COc1cc(OC)c(Cl)c(-c2c(C)nnc(Cl)c2-c2ccc(F)cc2Cl)c1` [Compound 53], the “Test B rating (disease control)” value with Alternaria solani (200 ppm test suspension) came to 99%. In the assay on Septoria nodorum (200 ppm test suspension), the “Test C rating (disease control)” value is listed as 98%. Moreover, in assay [1] (200 ppm test suspension), the “Test E1 rating (disease control)” value stood at 98%. In addition, the “Test F rating (disease control)” value in the assay on Erysiphe graminis (200 ppm test suspension) is given as 100%. Further, in assay [2] (200 ppm test suspension), the “Test E2 rating (disease control)” value worked out at 100%. Moreover, the “Test A rating (disease control)” value in the assay with Botrytis cinerea (200 ppm test suspension) is reported as 99%.
